Measured values as given in patent US20160151503A1, “COMPOSITIONS AND PREPARATION METHODS OF LOW MELTING IONIC SALTS OF POORLY-WATER SOLUBLE DRUGS” (MW ENCAP LIMITED, priority 2013, published 2016).
Counter-ions that a name gives are not always drawn.

Tests used:
[1] = Drug solubility in exemplar lipid formulations (SEDDS) and individual excipients
Method: Where lipid based formulations have been employed, formulations were made up in glass vials by weighing the appropriate quantities of excipient directly into the vial, followed by mixing
In some cases the solubility of the low melting ionic salt in individual excipients was also measured.
Drug solubility in each formulation was assessed in one of two ways. Firstly, quantitatively, by incubating formulations with excess drug at 37 degrees and taking samples over time. These samples were centrifuged to pellet solid material and the drug concentration in the formulation assessed by HPLC.

[2] = In vitro dispersion and digestion of cinnarizine decylsulfate SEDDS solution in simulated intestinal fluid; type: in vitro ADME; conditions: after in vitro dispersion or digestion of SEDDS solution in SIF
[3] = Equilibrium solubility in colloids formed by in vitro digestion of blank SEDDS in simulated intestinal fluid; type: physicochemical; conditions: colloids from 60 min digestion of blank LC2 SEDDS (1 g in 39 mL SIF), pH 6.5, 37° C.
Method: In this experiment blank SEDDS formulation (1 g) was dispersed in 39 mL of simulated intestinal fluid. (SIF) (2 mM Tris-maleate, 1.4 mM CaCl2.H2O, 150 mM NaCl, 3 mM NaTDC, 0.75 mM PC, pH 6.5, 37° C.) and pancreatic enzymes added to stimulate digestion. The experiment was conducted at 37° C. and allowed to continue for 60 mins. […] From the data in Table 5.3 below it is apparent that synthesis of the IL increases drug affinity for intestinal colloidal phases and therefore increases solubilisation in the GI tract—consistent with the increases in exposure seen in FIG. 3

[4] = Itraconazole plasma pharmacokinetics after oral administration of comparative formulations to rats; type: in vivo; conditions: same equivalent dose of ITZ FB, solution in SEDDS
Method: Note that the very low solubility of ITZ free base precludes formulation as a lipid based formulation. It is only via isolation as the IL that this possibility is realised since the solubility of the ITZ IL in lipid formulations is very much higher. All were dosed at the same dose (20 mg/kg).
The isolation of ITZ as the docusate IL increased drug solubility in the SEDDS formulation and allowed administration as a Solution in the SEDDS formulation. […] ITZ FB was not sufficiently soluble in the SEDDS formulation to allow administration as a solution in the SEDDS at any reasonable dose and was therefore dosed as a suspension in the SEDDS formulation and also as an aqueous suspension. The same dose was administered as the commercial Sporanox formulation of ITZ FB
It is apparent that the ITZ IL formulation allowed administration of a much higher ITZ dose as a solution in a lipid based formulation and that this in turn led to much higher plasma levels than the equivalent suspension formulation of the free base, or the commercial Sporanox formulation.

[5] = SEDDS: 15% soybean oil, 15% Maisine 35-1, 60% Cremophor EL, 10% EtOH
[6] = Table 8 Meclofenamic Acid, MC SEDDS
[7] = Table 7 Tolfenamic Acid, MC SEDDS

C(=C/c1ccccc1)/CN1CCN(C(c2ccccc2)c2ccccc2)CC1 [Cinnadzine free base, Cinnarizine, reference compound]
cinnarizine solubility in the lipid vehicle [1, 5]: approximately 44 mg/g

C(=C\c1ccccc1)/CN1CCN(C(c2ccccc2)c2ccccc2)CC1 [Cinnarizine-decylsulfate, Cinnarizine Decylsulfate]
miscibility with the SEDDS formulation [1, 5]: essentially miscible | incorporated drug remaining solubilized in an aqueous phase [2]: more than 95%

COc1ccc2c(c1)[C@]13CCCC[C@@H]1[C@H](C2)N(C)CC3 [Dextromethorphan, reference compound]
Solubility in MC SEDDS (mg/g) Free base equiv. ([1]; Table 5 Dextromethorphan and Metformin, MC SEDDS): <50 mg/g

CCC(C)n1ncn(-c2ccc(N3CCN(c4ccc(OCC5COC(Cn6cncn6)(c6ccc(Cl)cc6Cl)O5)cc4)CC3)cc2)c1=O (stereo not shown) [Itraconazole free base, Itraconazole, reference compound]
Solubility in simulated intestinal fluid plus lipid digestion products ([3]; listed as ITZ FB): <47 µg/mL

CCC(C)n1ncn(-c2ccc(N3CCN(c4ccc(OCC5COC(Cn6cncn6)(c6ccc(Cl)cc6Cl)O5)cc4)CC3)cc2)c1=O (stereo not shown) [Itraconazole- diocytlsulfosuccinate, Itraconazole Dioctylsulfosuccinate (Docusate)]
plasma levels compared to the commercial formulation [4]: ~2.5 fold | Solubility in simulated intestinal fluid plus lipid digestion products ([3]; listed as ITZ-docusate IL): 1720 ± 150 µg/mL | Solubility in LC^2 SEDDS (mg/g) itraconazole equiv. ([1]; LC2 SEDDS: 30% SBO, 30% Maisine, 30% CrEL, 10% EtOH): 159.8 mg/g

Cc1ccc(Cl)c(Nc2ccccc2C(=O)O)c1Cl [Meclofenamic acid, 1- hexadecyl-3- methylpyridinium salt] [Meclofenamic Acid, 1-hexadecyl-3-methylpyridinium Salt]
Solubility in MC^2 SEDDS (mg/g) Free base equiv. [1, 6]: >240 mg/g

Cc1ccc(Cl)c(Nc2ccccc2C(=O)O)c1Cl [Meclofenamic acid, N-decyl-N,N- dimethyldodecylammonium salt] [Meclofenamic Acid, N-decyl-N,N-dimethyldodecylammonium Salt]
Solubility in MC^2 SEDDS (mg/g) Free base equiv. [1, 6]: >240 mg/g

Cc1c(Cl)cccc1Nc1ccccc1C(=O)O [Tolfenamic acid dodecylammonium salt, Tolfenamic Acid, Dodecylammonium Salt]
Solubility in MC^2 SEDDS (mg/g) Free base equiv. [1, 7]: >50 mg/g

Cc1c(Cl)cccc1Nc1ccccc1C(=O)O [Tolfenamic acid, N-butyl- N,N-dimethylbutyl-N- dodecylammoni] [Tolfenamic Acid, N-butyl-N,N-dimethylbutyl-N-dodecylammonium Salt]
Solubility in MC^2 SEDDS (mg/g) Free base equiv. [1, 7]: >200 mg/g

Cc1c(Cl)cccc1Nc1ccccc1C(=O)O [Tolfenamic acid, N-decyl-N,N- dimethyldodecylammonium salt] [Tolfenamic Acid, N-decyl-N,N-dimethyldodecylammonium Salt]
Solubility in MC^2 SEDDS (mg/g) Free base equiv. [1, 7]: >200 mg/g
